# ChEMBL document CHEMBL1201862, “PubChem BioAssay data set” (2004)
# Active and inactive are the calls of the source. Rule as the data show it, for most assays here: actives have a measured EC50 and inactives only a lower limit.
# How the values were obtained:
# [1] = Luminescence Cell-Based Dose Retest to Confirm Inhibitors of Cancer Stem Cells. [Related pubchem assays (depositor defined):AID2717, AID2721]; assay type: functional; details: Homo sapiens
# Cytochrome P450 2D6 = Cytochrome P450 2D6 (Homo sapiens, UniProt P10635);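 also: CYP2D6 member of a cytochrome P450 panel assay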
# Streptococcus = experiment: GAS UMAA2166 growth inhibition – luminescence, BacTiterGlo, counter-screen for streptokinase expression inhibitor project, dose response (AID 1915); assay type: functional, organism-based;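 also: potency for reduction of bacterial viability or growth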
# [2] = system: Streptococcus sp. 'group A'; experiment: Streptococcus pyogenes SK(-)GAS viability under kanamycin – luminescence, BacTiterGlo, confirmation, counter-screen for streptokinase expression inhibitor project, dose response (AID 1900); assay type: functional, organism-based
# Streptokinase A = target: T1, Streptokinase A (Streptococcus pyogenes serotype M1, UniProt P10520); experiment: viability-normalized secreted streptokinase activity reduction – plasminogen activation absorbance, OD405, dose response (AID 1914); assay type: functional, Streptococcus pyogenes M1 GAS;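 also: secreted streptokinase activity via plasminogen activation per viability signal from cell pellet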
# T1 sequence (P10520 whole entry): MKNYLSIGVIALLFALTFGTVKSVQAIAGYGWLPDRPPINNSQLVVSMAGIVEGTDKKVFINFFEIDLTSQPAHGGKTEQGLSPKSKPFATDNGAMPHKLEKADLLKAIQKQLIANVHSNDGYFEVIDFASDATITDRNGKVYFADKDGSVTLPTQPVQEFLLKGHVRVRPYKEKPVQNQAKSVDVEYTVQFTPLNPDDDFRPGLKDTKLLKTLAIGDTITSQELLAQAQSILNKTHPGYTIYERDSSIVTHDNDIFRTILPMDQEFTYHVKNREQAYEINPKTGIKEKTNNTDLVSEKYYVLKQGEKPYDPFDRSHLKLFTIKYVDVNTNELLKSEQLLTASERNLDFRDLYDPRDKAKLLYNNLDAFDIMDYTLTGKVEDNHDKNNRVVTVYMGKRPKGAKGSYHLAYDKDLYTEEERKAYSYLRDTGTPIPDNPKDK
# [3] = Trypanosoma cruzi growth suppression in host cells – NIH3T3 host cells, beta-gal luminescence, confirmation (AID 2044); assay type: functional, cell-based;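 also: intracellular parasites grown in NIH/3T3 mouse fibroblasts as host cells; luminescent beta-galactosidase reporter signal from transgenic T. cruzi replicating inside host cells; inhibitors lower the luminescence signal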
# [4] = NIH3T3 cell viability loss – ATP luminescence, mouse fibroblasts, counter-screen, dose response (AID 2010); assay type: functional, cell-based;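 also: cells exposed to compound for about 90 hours before reading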
# [5] = target: T2, Heat shock factor protein 1 (Mus musculus, UniProt P38532); experiment: decrease of HSF1-responsive luciferase luminescence – cell-based, NIH3T3, dose retest, confirmation (AID 2382); assay type: functional;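 also: NIH3T3 fibroblasts with HSF1-driven luciferase reporter stressed by proteasome inhibitor MG132; luminescence from HSF1-driven luciferase expression after 8 hours of MG132 stress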
# T2 sequence (P38532 whole entry): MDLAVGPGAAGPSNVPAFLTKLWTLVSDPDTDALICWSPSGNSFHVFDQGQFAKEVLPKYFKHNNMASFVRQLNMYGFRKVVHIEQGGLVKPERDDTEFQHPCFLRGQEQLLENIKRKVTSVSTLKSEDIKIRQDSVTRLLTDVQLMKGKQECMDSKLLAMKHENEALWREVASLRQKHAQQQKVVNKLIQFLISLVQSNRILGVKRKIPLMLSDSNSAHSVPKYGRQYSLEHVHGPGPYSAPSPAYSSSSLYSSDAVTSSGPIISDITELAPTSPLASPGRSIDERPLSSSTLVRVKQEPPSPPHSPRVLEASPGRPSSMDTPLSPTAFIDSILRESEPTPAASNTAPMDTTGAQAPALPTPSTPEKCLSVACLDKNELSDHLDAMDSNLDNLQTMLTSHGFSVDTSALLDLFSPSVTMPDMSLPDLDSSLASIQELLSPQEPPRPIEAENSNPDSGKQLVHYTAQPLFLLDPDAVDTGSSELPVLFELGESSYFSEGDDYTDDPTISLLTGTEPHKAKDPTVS
# INS1 = experiment: INS-1E survival protection against cytokine death – cell-based, luminescence, retest, dose response (AID 449756); assay type: functional; details: Rattus norvegicus;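 also: cell death triggered by IL-1 beta plus TNF-alpha plus IFN-gamma mixture; protective hits raise ATP signal compared with cytokine alone wells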
# [6] = luciferase reporter signal suppression in cells – H4 neuroglioma cells, luminescence, dose response (AID 1990); assay type: functional, cell-based
# [7] = Luminescence Cell-Based Dose Response HTS to Identify Inhibitors of 5'UTR Stem-Loop Driven Prion Protein mRNA Translation in H4 Neuroglioblastoma Cells. [Related pubchem assays: 1827 (Project Summary), 1813 (Primary HTS)]; assay type: functional
# Chain of Cytochrome P450 2D6 (P10635 whole entry): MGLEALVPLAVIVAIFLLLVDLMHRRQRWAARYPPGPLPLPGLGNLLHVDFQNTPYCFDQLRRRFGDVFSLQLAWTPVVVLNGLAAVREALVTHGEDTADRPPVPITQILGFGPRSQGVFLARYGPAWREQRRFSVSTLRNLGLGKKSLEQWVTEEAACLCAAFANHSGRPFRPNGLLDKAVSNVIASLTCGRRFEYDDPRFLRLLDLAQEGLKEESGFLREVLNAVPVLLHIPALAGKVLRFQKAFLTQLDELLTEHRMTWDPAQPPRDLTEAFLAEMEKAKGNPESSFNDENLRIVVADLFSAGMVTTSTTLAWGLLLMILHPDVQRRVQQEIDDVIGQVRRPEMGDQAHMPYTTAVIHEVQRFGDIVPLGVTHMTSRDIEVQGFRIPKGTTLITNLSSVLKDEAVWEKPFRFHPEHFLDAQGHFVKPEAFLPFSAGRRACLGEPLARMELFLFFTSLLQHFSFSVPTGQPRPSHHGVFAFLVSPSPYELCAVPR
structure (smiles),measurement,setting,value
COc1cccc(Nc2nc(-c3ccccc3)nc3ccccc23)c1,AC50,[1],5.53 µM (active)
O=C(CSc1nnc(SCc2cccc3ccccc23)s1)c1ccc2c(c1)OCO2,AC50,Cytochrome P450 2D6,7.94 µM (inconclusive)
COc1ccccc1CN1CN(S(=O)(=O)c2ccccc2)c2nc3ccccc3nc21,EC50,Streptococcus,> 150 µM (not active)
same,EC50,[2],47.6 µM (active)
same,EC50,Streptokinase A,55.1 µM (active)
Cc1c(CCOC(=O)c2cc([N+](=O)[O-])cc([N+](=O)[O-])c2)sc[n+]1CC(=O)c1ccccc1,EC50,[3],1.97 µM (active)
same,EC50,[4],> 60 µM (not active)
O=C(/C=C/c1ccc(F)cc1)c1ccccc1Br,AC50,[1],3.87 µM (active)
COc1ccc(S(=O)(=O)NCC(c2cccnc2)N2CCN(Cc3ccccc3)CC2)cc1C (stereo unspecified),EC50,[3],0.678 µM (active)
same,EC50,[4],> 60 µM (not active)
COc1ccccc1NS(=O)(=O)c1ccc(C)c(C(N)=O)c1,EC50,[5],> 195 µM (not active)
CCOC(=O)N1CCN(C(=O)C(CC)n2nc(C)c3sc4ccccc4c3c2=O)CC1 (stereo unspecified),AC50,Cytochrome P450 2D6,39.8 µM (inconclusive)
CC1CCN(c2nc(-c3ccc(F)cc3)cc(C(F)(F)F)n2)CC1,EC50,Streptococcus,17.5 µM (active)
same,EC50,[2],11.6 µM (active)
same,EC50,Streptokinase A,4.61 µM (active)
Cc1cccc(NC(=O)c2ccc([N+](=O)[O-])s2)c1C,EC50,[3],0.691 µM (active)
same,EC50,[4],> 60 µM (not active)
same,AC50,INS1,12 µM (active)
O=C(/C=C/c1ccc(F)cc1)c1cc(Br)ccc1O,AC50,[1],13.1 µM (active)
Cc1ccccc1NC(S)=NCC1CCN(C(C)c2ccccc2)C1 (stereo unspecified),EC50,[3],1.1 µM (active)
same,EC50,[4],> 60 µM (not active)
CCOC(=O)Cn1nc(C)c(NC(=O)COc2ccc([N+](=O)[O-])cc2)c1C,EC50,[5],> 195 µM (not active)
O=C(NCC(c1cccnc1)N1CCN(c2ccccc2F)CC1)Oc1ccccc1 (stereo unspecified),EC50,[3],0.401 µM (active)
same,EC50,[4],> 60 µM (not active)
CCN(CCCNC(=O)CCCOc1cc(=O)n(C)c2ccccc12)Cc1ccccc1,EC50,[3],0.281 µM (active)
same,EC50,[4],> 60 µM (not active)
COc1cc(NC(=O)CN(C)S(=O)(=O)c2ccc3c(c2)CC(C)N3C(C)=O)cc(OC)c1 (stereo unspecified),EC50,[5],> 195 µM (not active)
O=C(O)c1cccc(NC(=O)c2ccccc2NC(=O)c2ccccc2F)c1,EC50,[5],> 195 µM (not active)
Cc1ccc(CSCCNS(=O)(=O)c2ccc([N+](=O)[O-])cc2)cc1,EC50,[3],0.939 µM (active)
same,EC50,[4],> 60 µM (not active)
COc1ccc(O)c(C(=O)c2cnc3nc4ccccc4n3c2)c1,AC50,INS1,1.23 µM (active)
COc1cc(CCCN2CCNC[C@@H]2Cc2ccc(O)cc2)cc(OC)c1OC,EC50,[5],> 195 µM (not active)
CC(C)C(=O)N1CCN(c2ccccc2NC(=O)COc2ccc(C3CCCCC3)cc2)CC1,EC50,Streptococcus,> 150 µM (not active)
same,EC50,[2],15.8 µM (active)
same,EC50,Streptokinase A,18.9 µM (inconclusive)
c1csc(CN2CC3(CCNCC3)C2)n1,AC50,Cytochrome P450 2D6,39.8 µM (inconclusive)
COC(=O)c1ccccc1NC(=O)c1cc2nc(C3CC3)cc(C(F)(F)F)n2n1,AC50,Cytochrome P450 2D6,3.16 µM (inconclusive)
COc1ccc(Cl)cc1N(CC(=O)N1CCN(Cc2ccccc2)CC1)S(C)(=O)=O,EC50,[5],> 195 µM (not active)
C[N+]1(C)[C@@H]2CC[C@H]1CC(OC(=O)c1c[nH]c3ccccc13)C2 (stereo partly specified),AC50,Cytochrome P450 2D6,31.6 µM (inconclusive)
CCCNC(=O)CSc1nc(-c2cccs2)cc(C(F)(F)F)n1,AC50,Cytochrome P450 2D6,3.16 µM (inconclusive)
COc1ccc2nc(COC(=O)c3cccs3)c(C(C)=O)[n+]([O-])c2c1,EC50,[5],> 195 µM (not active)
CC(C)(C)c1ccc(Oc2cccc(C3CC(=O)C(C4NCCc5ccccc54)C(=O)C3n3cncn3)c2)cc1 (stereo unspecified),EC50,Streptococcus,> 150 µM (not active)
same,EC50,[2],71.1 µM (active)
same,EC50,Streptokinase A,> 150 µM (not active)
CN1C(=O)C(=Cc2ccc(N3CCCCCC3)o2)C(=O)N(C)C1=S,AC50,Cytochrome P450 2D6,20 µM (inconclusive)
COC(=O)c1[nH]c2cc(C)ccc2c1NC(=O)CN1CCCc2ccccc21,EC50,[3],0.99 µM (active)
same,EC50,[4],> 60 µM (not active)
COc1cc(NC(=O)CN(C)S(=O)(=O)c2ccc(-c3ccc(O)nn3)s2)cc(OC)c1,EC50,[5],> 195 µM (not active)
CN(C)S(=O)(=O)c1ccc(-c2csnn2)s1,EC50,[5],> 195 µM (not active)
C[C@@H](N)[C@@H](C)Cc1ccccc1,AC50,Cytochrome P450 2D6,3.98 µM (inconclusive)
O=C(Nc1cccnc1)c1ccc([N+](=O)[O-])s1,AC50,INS1,7.27 µM (active)
NC(=O)COc1ccc(-n2cnnn2)cc1,EC50,[5],> 195 µM (not active)
CCN1CCN(C(S)=Nc2sc(C)c(-c3ccccc3)c2C(=O)OC)CC1,AC50,[1],3.65 µM (active)
CCC1Oc2ccc(C)cc2N(CC(=O)N(Cc2cccnc2)Cc2ccc(C)o2)C1=O (stereo unspecified),EC50,[3],0.166 µM (active)
same,EC50,[4],> 30 µM (not active)
CCOC(=O)c1cccc(-[n+]2c(-c3ccccc3)cc(-c3ccccc3)cc2-c2ccccc2)c1.[O-][Cl+3]([O-])([O-])[O-],AC50,INS1,2.68 µM (active)
CC(=O)NCc1ccc(C(=O)CCl)s1,EC50,[3],3.21 µM (active)
same,EC50,[4],3.9 µM (active)
CCCCCCSc1cc(-c2nc3cnccn3c2NCc2ccccc2)ccc1OC,EC50,Streptococcus,12.9 µM (active)
same,EC50,[2],4.3 µM (active)
same,EC50,Streptokinase A,16.7 µM (active)
CSc1nnc2ccc(-c3ccc(C)cc3)nn12,EC50,Streptococcus,> 150 µM (not active)
same,EC50,[2],> 150 µM (not active)
same,EC50,Streptokinase A,> 150 µM (not active)
O=C(c1ccccc1)c1ccc(OCCCN2CCCC2)cc1,EC50,[3],0.889 µM (active)
same,EC50,[4],> 60 µM (not active)
CCOc1ccc(CN2CCC(n3nccc3NC(=O)c3ccccc3OC)CC2)cc1,EC50,[3],0.997 µM (active)
same,EC50,[4],> 60 µM (not active)
Cn1cccc1C(=O)NC(=O)COC(=O)C12CC3CC(CC(O)(C3)C1)C2,EC50,[5],0.372 µM (active)
CCCCn1c(N)c(N(CCC(C)C)C(=O)c2ccc([N+](=O)[O-])s2)c(=O)[nH]c1=O,EC50,[3],0.997 µM (active)
same,EC50,[4],> 60 µM (not active)
Cc1cc(C)c2cc(CN(CCO)C(=O)Nc3ccc(Cl)cc3)c(O)nc2c1,EC50,[6],15.8 µM (active)
same,EC50,[7],33.3 µM (active)
COc1ccc(O)c(C2=Nc3ccccc3N=C(c3cccs3)C2)c1,EC50,[5],> 195 µM (not active)
COc1ccc(NC(=O)c2ccc3c(c2)NC(=O)CS3)cc1S(=O)(=O)Nc1ccc(Br)cc1,EC50,Streptococcus,26.3 µM (active)
same,EC50,[2],4.17 µM (active)
same,EC50,Streptokinase A,> 150 µM (not active)
CC(C)(C)NC(=O)CSC(=Nc1ccc(F)cc1)NC#N,AC50,Cytochrome P450 2D6,25.1 µM (inconclusive)
Cc1ccc(O)c(C(=O)CC(=O)c2ccc(C(C)(C)C)cc2)c1,EC50,Streptococcus,3.66 µM (active)
same,EC50,[2],1.63 µM (active)
Cc1ccc(C(=O)N2CCOCC2)cc1Cl,EC50,Streptococcus,> 150 µM (not active)
same,EC50,[2],> 150 µM (not active)
same,EC50,Streptokinase A,> 150 µM (not active)
O=C(c1ccco1)N(CCCN1CCOCC1)c1nc(-c2ccc(F)cc2)cs1,EC50,[3],1.28 µM (active)
same,EC50,[4],30.5 µM (active)
CCOC(=O)c1ccc(NC(=O)c2[nH]cnc2C(=O)NCCCCNC(=O)c2nc[nH]c2C(=O)Nc2ccc(C(=O)OCC)cc2)cc1,AC50,[1],2.51 µM (active)
CC(/C=C/c1ccc(N(C)C)cc1)=N\NC1=NC(=O)CC(C(=O)Nc2ccccc2)S1 (stereo unspecified),EC50,Streptococcus,9.04 µM (active)
same,EC50,[2],2.94 µM (active)
same,EC50,Streptokinase A,> 150 µM (not active)
COc1cccc(/C=N/NC(=O)CNC(=O)c2cccs2)c1O,AC50,INS1,7.39 µM (active)
Fc1ccc(Nc2nc(N/N=C/c3ccco3)nc(N3CCCCC3)n2)cc1,EC50,[3],2.88 µM (active)
same,EC50,[4],9.91 µM (active)
C/C(=N\Nc1nc(C(C)(C)C)cs1)c1ccccc1,EC50,[3],0.673 µM (active)
same,EC50,[4],> 30 µM (not active)
COc1ccc(C(=O)N/N=C(\C)Cn2cnc([N+](=O)[O-])n2)cc1,EC50,[3],1.03 µM (active)
same,EC50,[4],> 60 µM (not active)
